# Calls of active or inactive are those of the source. The calls are words filed in the database; no cut-off is given here.
# Columns and labels:
# [1] = Cytotoxicity against mouse lymphocytes at 10 ug/mL by MTS assay
# [2] = Cytotoxicity against mouse lymphocytes at 100 ug/mL by MTS assay
# Mus musculus [3] = species: Mus musculus; test: Immunostimulant activity in mouse lymphocytes at 100 pg/ml to 1 ug/mL by MTS assay; assay type: functional, cell-based
# Mus musculus [4] = species: Mus musculus; test: Increase in LPS-induced proliferation in mouse B-lymphocytes at 1 ug/mL by MTS assay; assay type: functional, cell-based
# [5] = Suppression of concanavalin A-induced proliferation in mouse T-lymphocytes at 1 ug/mL by MTS assay; assay type: functional
# Mus musculus [6] = species: Mus musculus; test: Increase in concanavalin A-induced proliferation in mouse T-lymphocytes at 1 ug/mL by MTS assay; assay type: functional, cell-based
SMILES,Activity [1],Activity [2],Activity (Mus musculus [3]),Activity (Mus musculus [4]),Activity [5] [%],Activity (Mus musculus [6])
C[C@@H]1O[C@@H](O[C@@H]2[C@@H](O)[C@H](OC(=O)[C@]34CCC(C)(C)C[C@H]3C3=CC[C@@H]5[C@@]6(C)CC[C@H](O[C@@H]7O[C@H](C(=O)O)[C@@H](O)[C@H](O[C@@H]8OC[C@@H](O)[C@H](O)[C@H]8O)[C@H]7O[C@@H]7O[C@H](CO)[C@H](O)[C@H](O)[C@H]7O)[C@@](C)(C=O)[C@@H]6CC[C@@]5(C)[C@]3(C)CC4)O[C@H](C)[C@@H]2O[C@@H]2O[C@@H](C)[C@H](O[C@@H]3OC[C@@H](O)[C@H](O[C@@H]4OC[C@@H](O)[C@H](O)[C@H]4O)[C@H]3O)[C@@H](O)[C@H]2O)[C@H](O)[C@H](O)[C@H]1O,Non-toxic,58%,Active,Active,40,–
C[C@@H]1O[C@@H](O[C@H]2[C@H](O[C@H]3[C@H](OC(=O)[C@]45CCC(C)(C)C[C@H]4C4=CC[C@@H]6[C@@]7(C)CC[C@H](O[C@@H]8O[C@H](CO)[C@@H](O)[C@H](O)[C@H]8O)[C@@](C)(C=O)[C@@H]7CC[C@@]6(C)[C@]4(C)CC5)O[C@H](CO[C@@H]4O[C@H](CO)[C@@H](O)[C@H](O)[C@H]4O)[C@@H](O)[C@@H]3O)OC[C@H](O)[C@@H]2O)[C@H](O)[C@H](O)[C@H]1O,–,Non-toxic,–,Active,–,Active

# Reference: ChEMBL document CHEMBL1155620, “Two new biologically active triterpene saponins from Acanthophyllum squarrosum” (J Nat Prod, 2000)
